Test results taken from patent US6627774B2, “N-deacetylthiocolchicine derivatives and pharmaceutical compositions containing them” (Indena S.p.A., priority 2001, dated 2003).

Tested on: MCF7-ADRr
Format: cell-based
Experimental: The cytotoxic activity was evaluated according to M. C. Alley et al., Cancer Research, 48, 589-601, […].

COc1cc2c(c(OC)c1OC)-c1ccc(SC)c(=O)cc1[C@@H](NC(C)=O)CC2 [Thiocolchicine]
MCF7-ADRr/MCF7: 20000
